# Results from PubChem BioAssay (NCI).
#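 Values below derive from 48-hour exposures of cells grown in 96-well plates, with endpoints linearly interpolated between the two concentrations bracketing the appropriate inhibition level. TGI: total growth inhibition.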
# What was measured:
# Test in all cases: NCI tumour cell line growth inhibition, 48 h
# CAKI-1 renal = system: CAKI-1 renal
# OVCAR-4 ovarian = system: OVCAR-4 ovarian
# SNB-19 CNS = system: SNB-19 CNS
# NCI-H460 lung = system: NCI-H460 lung
# HCT-116 colon = system: HCT-116 colon
# HCT-15 colon = system: HCT-15 colon
# SNB-75 CNS = system: SNB-75 CNS
# SK-MEL-2 melanoma = system: SK-MEL-2 melanoma
# OVCAR-8 ovarian = system: OVCAR-8 ovarian
# K-562 leukemia = system: K-562 leukemia
# PC-3 prostate = system: PC-3 prostate
# IGROV1 ovarian = system: IGROV1 ovarian
# DU-145 prostate = system: DU-145 prostate
# SK-MEL-28 melanoma = system: SK-MEL-28 melanoma
# KM12 colon = system: KM12 colon
# MDA-N = system: MDA-N
# RXF 393 renal = system: RXF 393 renal
# T-47D breast = system: T-47D breast
# SR leukemia = system: SR leukemia
# MDA-MB-435 = system: MDA-MB-435
# TK-10 renal = system: TK-10 renal
# EKVX NSCLC = system: EKVX NSCLC
# COLO 205 colon = system: COLO 205 colon
# HS 578T breast = system: HS 578T breast
# MDA-MB-231 breast = system: MDA-MB-231 breast
# SK-MEL-5 melanoma = system: SK-MEL-5 melanoma
# UACC-257 melanoma = system: UACC-257 melanoma
# M14 melanoma = system: M14 melanoma
# SK-OV-3 ovarian = system: SK-OV-3 ovarian
# UO-31 renal = system: UO-31 renal
# SN12C renal = system: SN12C renal
# NCI-H23 lung = system: NCI-H23 lung
# HOP-62 NSCLC = system: HOP-62 NSCLC
# OVCAR-3 ovarian = system: OVCAR-3 ovarian
# SF-268 CNS = system: SF-268 CNS
# SF-295 CNS = system: SF-295 CNS
# ACHN renal = system: ACHN renal
# CCRF-CEM leukemia = system: CCRF-CEM leukemia
# NCI/ADR-RES ovarian = system: NCI/ADR-RES ovarian
# RPMI-8226 leukemia = system: RPMI-8226 leukemia
# HL-60(TB) leukemia = system: HL-60(TB) leukemia
# 786-0 renal = system: 786-0 renal
# OVCAR-5 ovarian = system: OVCAR-5 ovarian
# U251 CNS = system: U251 CNS
# A549 NSCLC = system: A549 NSCLC
# LOX IMVI melanoma = system: LOX IMVI melanoma
# HT29 colon = system: HT29 colon
# NCI-H522 lung = system: NCI-H522 lung
# NCI-H226 lung = system: NCI-H226 lung
# HCC-2998 colon = system: HCC-2998 colon
# MOLT-4 leukemia = system: MOLT-4 leukemia
# MALME-3M melanoma = system: MALME-3M melanoma
# A498 renal = system: A498 renal
# MCF7 breast = system: MCF7 breast
# SW-620 colon = system: SW-620 colon
# UACC-62 melanoma = system: UACC-62 melanoma
# SF-539 CNS = system: SF-539 CNS
# HOP-92 NSCLC = system: HOP-92 NSCLC
smiles,measurement,setting,value
CN(C)/C=C1\CCc2ccc([N+](=O)[O-])cc2C1=O,TGI,CAKI-1 renal,> 100 µM
same,TGI,OVCAR-4 ovarian,34.2 µM
same,TGI,SNB-19 CNS,> 100 µM
same,TGI,NCI-H460 lung,> 100 µM
same,TGI,HCT-116 colon,36 µM
same,TGI,HCT-15 colon,> 100 µM
same,TGI,SNB-75 CNS,> 100 µM
same,TGI,SK-MEL-2 melanoma,> 100 µM
same,TGI,OVCAR-8 ovarian,> 100 µM
same,TGI,K-562 leukemia,56.8 µM
same,TGI,PC-3 prostate,> 100 µM
same,TGI,IGROV1 ovarian,> 100 µM
same,TGI,DU-145 prostate,> 100 µM
same,TGI,SK-MEL-28 melanoma,> 100 µM
same,TGI,KM12 colon,> 100 µM
same,TGI,MDA-N,38.1 µM
same,TGI,RXF 393 renal,> 100 µM
same,TGI,T-47D breast,89.6 µM
same,TGI,SR leukemia,74.2 µM
same,TGI,MDA-MB-435,34.8 µM
same,TGI,TK-10 renal,> 100 µM
same,TGI,EKVX NSCLC,> 100 µM
same,TGI,COLO 205 colon,43.5 µM
same,TGI,HS 578T breast,> 100 µM
same,TGI,MDA-MB-231 breast,43.8 µM
same,TGI,SK-MEL-5 melanoma,> 100 µM
same,TGI,UACC-257 melanoma,38.2 µM
same,TGI,M14 melanoma,> 100 µM
same,TGI,SK-OV-3 ovarian,> 100 µM
same,TGI,UO-31 renal,> 100 µM
same,TGI,SN12C renal,40.4 µM
same,TGI,NCI-H23 lung,> 100 µM
same,TGI,HOP-62 NSCLC,> 100 µM
same,TGI,OVCAR-3 ovarian,41.2 µM
same,TGI,SF-268 CNS,> 100 µM
same,TGI,SF-295 CNS,> 100 µM
same,TGI,ACHN renal,> 100 µM
same,TGI,CCRF-CEM leukemia,52.4 µM
same,TGI,NCI/ADR-RES ovarian,> 100 µM
same,TGI,RPMI-8226 leukemia,62.2 µM
same,TGI,HL-60(TB) leukemia,66.6 µM
same,TGI,786-0 renal,> 100 µM
same,TGI,OVCAR-5 ovarian,> 100 µM
same,TGI,U251 CNS,> 100 µM
same,TGI,A549 NSCLC,> 100 µM
same,TGI,LOX IMVI melanoma,42.6 µM
same,TGI,HT29 colon,53.7 µM
same,TGI,NCI-H522 lung,> 100 µM
same,TGI,NCI-H226 lung,> 100 µM
same,TGI,HCC-2998 colon,> 100 µM
same,TGI,MOLT-4 leukemia,51 µM
same,TGI,MALME-3M melanoma,> 100 µM
same,TGI,A498 renal,> 100 µM
same,TGI,MCF7 breast,48 µM
same,TGI,SW-620 colon,97.1 µM
same,TGI,UACC-62 melanoma,76.4 µM
CCOC(=O)C(=O)/C(=C/n1c(=S)[nH]c2ccc([N+](=O)[O-])cc21)C(=O)OCC,TGI,CAKI-1 renal,> 100 µM
same,TGI,OVCAR-4 ovarian,> 100 µM
same,TGI,SNB-19 CNS,> 100 µM
same,TGI,NCI-H460 lung,> 100 µM
same,TGI,HCT-116 colon,> 100 µM
same,TGI,SNB-75 CNS,> 100 µM
same,TGI,SK-MEL-2 melanoma,> 100 µM
same,TGI,OVCAR-8 ovarian,> 100 µM
same,TGI,K-562 leukemia,> 100 µM
same,TGI,PC-3 prostate,> 100 µM
same,TGI,DU-145 prostate,> 100 µM
same,TGI,SK-MEL-28 melanoma,> 100 µM
same,TGI,KM12 colon,> 100 µM
same,TGI,MDA-N,> 100 µM
same,TGI,RXF 393 renal,> 100 µM
same,TGI,T-47D breast,> 100 µM
same,TGI,SR leukemia,> 100 µM
same,TGI,MDA-MB-435,> 100 µM
same,TGI,TK-10 renal,> 100 µM
same,TGI,COLO 205 colon,> 100 µM
same,TGI,HS 578T breast,> 100 µM
same,TGI,MDA-MB-231 breast,> 100 µM
same,TGI,SK-MEL-5 melanoma,> 100 µM
same,TGI,UACC-257 melanoma,> 100 µM
same,TGI,M14 melanoma,> 100 µM
same,TGI,SK-OV-3 ovarian,> 100 µM
same,TGI,UO-31 renal,> 100 µM
same,TGI,SN12C renal,> 100 µM
same,TGI,NCI-H23 lung,> 100 µM
same,TGI,HOP-62 NSCLC,> 100 µM
same,TGI,OVCAR-3 ovarian,> 100 µM
same,TGI,SF-268 CNS,> 100 µM
same,TGI,SF-295 CNS,> 100 µM
same,TGI,ACHN renal,> 100 µM
same,TGI,CCRF-CEM leukemia,> 100 µM
same,TGI,NCI/ADR-RES ovarian,> 100 µM
same,TGI,RPMI-8226 leukemia,> 100 µM
same,TGI,SF-539 CNS,> 100 µM
same,TGI,HL-60(TB) leukemia,> 100 µM
same,TGI,786-0 renal,> 100 µM
same,TGI,OVCAR-5 ovarian,> 100 µM
same,TGI,HOP-92 NSCLC,> 100 µM
same,TGI,U251 CNS,> 100 µM
same,TGI,A549 NSCLC,> 100 µM
same,TGI,LOX IMVI melanoma,> 100 µM
same,TGI,HT29 colon,> 100 µM
same,TGI,NCI-H226 lung,> 100 µM
same,TGI,HCC-2998 colon,> 100 µM
same,TGI,MOLT-4 leukemia,> 100 µM
same,TGI,A498 renal,> 100 µM
same,TGI,MCF7 breast,> 100 µM
same,TGI,SW-620 colon,> 100 µM
same,TGI,UACC-62 melanoma,> 100 µM
CCOC(=O)c1csc(NC(=O)CN(C)C)n1,TGI,CAKI-1 renal,> 100 µM
same,TGI,OVCAR-4 ovarian,> 100 µM
same,TGI,SNB-19 CNS,> 100 µM
same,TGI,NCI-H460 lung,> 100 µM
same,TGI,HCT-15 colon,> 100 µM
same,TGI,SNB-75 CNS,> 100 µM
same,TGI,SK-MEL-2 melanoma,> 100 µM
same,TGI,OVCAR-8 ovarian,> 100 µM
same,TGI,K-562 leukemia,> 100 µM
same,TGI,PC-3 prostate,> 100 µM
same,TGI,IGROV1 ovarian,> 100 µM
same,TGI,DU-145 prostate,> 100 µM
same,TGI,SK-MEL-28 melanoma,> 100 µM
same,TGI,KM12 colon,> 100 µM
same,TGI,MDA-N,> 100 µM
same,TGI,RXF 393 renal,> 100 µM
same,TGI,T-47D breast,> 100 µM
same,TGI,SR leukemia,> 100 µM
same,TGI,MDA-MB-435,> 100 µM
same,TGI,TK-10 renal,> 100 µM
same,TGI,EKVX NSCLC,> 100 µM
same,TGI,COLO 205 colon,> 100 µM
same,TGI,HS 578T breast,> 100 µM
same,TGI,MDA-MB-231 breast,> 100 µM
same,TGI,SK-MEL-5 melanoma,> 100 µM
same,TGI,UACC-257 melanoma,> 100 µM
same,TGI,M14 melanoma,> 100 µM
same,TGI,SK-OV-3 ovarian,> 100 µM
same,TGI,UO-31 renal,> 100 µM
same,TGI,NCI-H23 lung,> 100 µM
same,TGI,HOP-62 NSCLC,> 100 µM
same,TGI,OVCAR-3 ovarian,> 100 µM
same,TGI,SF-268 CNS,> 100 µM
same,TGI,SF-295 CNS,> 100 µM
same,TGI,ACHN renal,> 100 µM
same,TGI,CCRF-CEM leukemia,> 100 µM
same,TGI,NCI/ADR-RES ovarian,> 100 µM
same,TGI,RPMI-8226 leukemia,> 100 µM
same,TGI,SF-539 CNS,> 100 µM
same,TGI,HL-60(TB) leukemia,> 100 µM
same,TGI,OVCAR-5 ovarian,> 100 µM
same,TGI,HOP-92 NSCLC,> 100 µM
same,TGI,U251 CNS,> 100 µM
same,TGI,A549 NSCLC,> 100 µM
same,TGI,LOX IMVI melanoma,> 100 µM
same,TGI,HT29 colon,> 100 µM
same,TGI,NCI-H226 lung,> 100 µM
same,TGI,HCC-2998 colon,> 100 µM
same,TGI,MOLT-4 leukemia,> 100 µM
same,TGI,A498 renal,> 100 µM
same,TGI,MCF7 breast,> 100 µM
same,TGI,SW-620 colon,> 100 µM
same,TGI,UACC-62 melanoma,> 100 µM
